Assay results as given in patent US20070117743A1, “New antitumoral compounds” (priority 2003, published 2007).
Where two headings read alike, the source gives them in different places. Where a SMILES comes first, the peptide text is derived from it. Bridges are numbered along the chain shown (N, C = ends). [ ]: non-standard residue; d: D form. The star is where a group is joined. Hexanoyl(4S-Me) = CC[C@H](C)CCC(=O)*; d(aIle) = CC[C@H](C)[C@@H](N)C(=O)O; d(aThr) = C[C@@H](O)[C@@H](N)C(=O)O; Hexanoyl(5-Me) = CC(C)CCCC(=O)*; 2Thi = N[C@@H](Cc1cccs1)C(=O)O; Orn = NCCC[C@H](N)C(=O)O; Dhb = C/C=C(\N)C(=O)O

Assays:
Format in all cases: cell-based, human
IGROV-ET = assay: SRB colorimetric assay of cell growth and viability, IGROV-ET; details: 48 hours exposure; for CC50: read-out: LC50 IGROV-ET
LoVo-Dox = assay: SRB colorimetric assay of cell growth and viability, LoVo-Dox; details: 48 hours exposure; for CC50: read-out: LC50 LOVO-DOX
In short: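 Sulforhodamine B assay run after 48 h of continuous drug contact; cells seeded 5×10^3/well in RPMI 1640 10% FBS, attached 18 h. Triplicate OD490 values give cytostatic (TGI), cytotoxic (LC) and GI parameters.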

LoVo = assay: SRB colorimetric assay of cell growth and viability, LoVo; details: 48 hours exposure; for CC50: read-out: LC50 LOVO
DU-145 = assay: SRB colorimetric assay of cell growth and viability, DU-145; details: 48 hours exposure
A-549 = assay: SRB colorimetric assay of cell growth and viability, A-549; details: 48 hours exposure; for GI50: read-out: GI50 A-549; for CC50: read-out: LC50 A-549
PANC-1 = assay: SRB colorimetric assay of cell growth and viability, PANC-1; details: 48 hours exposure; for CC50: read-out: LC50 PANC-1
K-562 = assay: SRB colorimetric assay of cell growth and viability, K-562; details: 48 hours exposure; for CC50: read-out: LC50 K-562
SK-BR-3 = assay: SRB colorimetric assay of cell growth and viability, SK-BR-3; details: 48 hours exposure
Source text: The finality of this assay is to interrupt the growth of a “in vitro” tumor cell culture by means a continued exhibition of the cells to the sample to be testing.
This form of the assay employs 96 well cell culture microplates of 9 mm diameter (Faircloth, 1988; Mosmann, 1983). Most of the cell lines are obtained from American Type Culture Collection (ATCC) derived from different human cancer types.
Cells are maintained in RPMI 1640 10% FBS, supplemented with 0.1 g/l penicillin and 0.1 g/l streptomycin sulfate and then incubated at 37° C., 5% CO2 and 98% humidity. For the experiments, cells were harvested from subconfluent cultures using trypsin and resuspended in fresh medium before plating.
Cells are seeded in 96 well microtiter plates, at 5×10^3 cells per well in aliquots of 195 μL medium, and they are allowed to attach to the plate surface by growing in drug free medium for 18 hours. Afterward, samples are added in aliquots of 5 μL in a ranging from 10 to 10^−8 μg/mL, dissolved in DMSO:EtOH:PBS (0.5:0.5:99). After 48 hours exposure, the antitumor effect are measured by the SRB methodology: cells are fixed by adding 50 μL of cold 50% (wt/vol) trichloroacetic acid (TCA) and incubating for 60 minutes at 4° C. Plates are washed with deionized water and dried. One hundred μL of SRB solution (0.4% wt/vol in 1% acetic acid) is added to each microtiter well and incubated for 10 minutes at room temperature. Unbound SRB is removed by washing with 1% acetic acid. Plates are air dried and bound stain is solubilized with Tris buffer. Optical densities are read on a automated spectrophotometric plate reader at a single wavelength of 490 nm.
The values for mean+/− SD of data from triplicate wells are calculated. Some parameters for cellular responses can be calculated: GI=growth inhibition, TGI=total growth inhibition (cytostatic effect) and LC=cell killing (cytotoxic effect).

HT-29 = assay: SRB colorimetric assay of cell growth and viability, HT-29; details: 48 hours exposure; for GI50: read-out: GI50 HT-29; for CC50: read-out: LC50 HT-29
HeLa-APL = assay: SRB colorimetric assay of cell growth and viability, HeLa-APL; details: 48 hours exposure; for CC50: read-out: LC50 HELA-APL
SK-MEL-28 = assay: SRB colorimetric assay of cell growth and viability, SK-MEL-28; details: 48 hours exposure; for CC50: read-out: LC50 MEL-28
IGROV-1 = assay: SRB colorimetric assay of cell growth and viability, IGROV-1; details: 48 hours exposure
HeLa = assay: SRB colorimetric assay of cell growth and viability, HeLa; details: 48 hours exposure; for CC50: read-out: LC50 HELA

C/C=C1\NC(=O)[C@H](Cc2cccs2)NC(=O)[C@@H](C(C)C)NC(=O)[C@@H]([C@@H](C)CC)NC(=O)[C@H](NC(=O)[C@H](NC(=O)[C@H](CCCN)NC(=O)[C@H]2CCCN2C(=O)[C@H](NC(=O)[C@@H](NC(=O)[C@@H](NC(=O)[C@H](NC(=O)CC[C@@H](C)CC)C(C)C)[C@@H](C)O)C(C)C)C(C)C)[C@@H](C)CC)[C@@H](C)OC(=O)[C@H](C(C)C)NC1=O [Compound 76, [Thi^3, (4S)-MeHex^14]-KF] ({Hexanoyl(4S-Me)}-[dV]TV[dV][dP][Orn][d(aIle)][d(aThr)][d(aIle)][dV][2Thi][Dhb]V; ester 8-C)
GI50 (IGROV-ET; SRB): 1000 nM
TGI IGROV-ET (IGROV-ET; SRB): 1.85E−06 Molar
CC50 (IGROV-ET; SRB): 3410 nM
GI50 (LoVo-Dox; SRB): 147 nM
TGI LOVO-DOX (LoVo-Dox; SRB): 2.61E−07 Molar
CC50 (LoVo-Dox; SRB): 463 nM
GI50 (LoVo; SRB): 243 nM
TGI LOVO (LoVo; SRB): 7.21E−07 Molar
CC50 (LoVo; SRB): 2160 nM
GI50 (DU-145; SRB): 1200 nM
LC50 (concentration causing 50% net cell kill) (DU-145; SRB): 3750 nM
TGI DU-145 (DU-145; SRB): 2.12E−06 Molar
TGI A-549 (A-549; SRB): 2.60E−06 Molar
GI50 (A-549; SRB): 1530 nM
CC50 (A-549; SRB): 4430 nM
GI50 (PANC-1; SRB): 5930 nM
TGI PANC-1 (PANC-1; SRB): 6.74E−06 Molar
CC50 (PANC-1; SRB): 6740 nM
GI50 (K-562; SRB): 1710 nM
TGI K-562 (K-562; SRB): 4.01E−06 Molar
CC50 (K-562; SRB): 6740 nM
GI50 (SK-BR-3; SRB): 313 nM
LC50 (SK-BR-3; SRB): 2040 nM
TGI SK-BR-3 (SK-BR-3; SRB): 6.26E−07 Molar
TGI HT-29 (HT-29; SRB): 1.74E−06 Molar
GI50 (HT-29; SRB): 842 nM
CC50 (HT-29; SRB): 3590 nM
GI50 (HeLa-APL; SRB): 1350 nM
TGI HELA-APL (HeLa-APL; SRB): 2.28E−06 Molar
CC50 (HeLa-APL; SRB): 3860 nM
GI50 (SK-MEL-28; SRB): 1540 nM
TGI MEL-28 (SK-MEL-28; SRB): 2.52E−06 Molar
CC50 (SK-MEL-28; SRB): 4140 nM
GI50 (IGROV-1; SRB): 1180 nM
LC50 (concentration causing 50% net cell killing) (IGROV-1; SRB): 3870 nM
TGI IGROV (IGROV-1; SRB): 2.14E−06 Molar
GI50 (HeLa; SRB): 1180 nM
TGI HELA (HeLa; SRB): 2.01E−06 Molar
CC50 (HeLa; SRB): 3450 nM

[2H]C([2H])([2H])C([2H])(C([2H])([2H])[2H])[C@]([2H])(NC(=O)[C@@H](NC(=O)[C@H](NC(=O)CCCC(C)C)C(C)C)[C@@H](C)O)C(=O)N[C@@H](C(=O)N1CCC[C@@H]1C(=O)N[C@@H](CCCN)C(=O)N[C@@H](C(=O)N[C@H]1C(=O)N[C@H]([C@@H](C)CC)C(=O)N[C@H](C(C)C)C(=O)N[C@@H](Cc2ccccc2)C(=O)N/C(=C\C)C(=O)N[C@@H](C(C)C)C(=O)O[C@@H]1C)[C@@H](C)CC)C(C)C [Compound 100, [L-Val-d8^11]-KF]
GI50 (IGROV-ET; SRB): 399 nM
TGI IGROV-ET (IGROV-ET; SRB): 7.63E−07 Molar
CC50 (IGROV-ET; IGROV-ET): 1750 nM
GI50 (LoVo-Dox; LOVO-DOX): 123 nM
TGI LOVO-DOX (LoVo-Dox; LOVO-DOX): 6.88E−07 Molar
CC50 (LoVo-Dox; LOVO-DOX): 1380 nM
GI50 (LoVo; LOVO): 181 nM
TGI LOVO (LoVo; LOVO): 6.38E−07 Molar
CC50 (LoVo; LOVO): 1260 nM
GI50 (DU-145; SRB): 544 nM
TGI DU-145 (DU-145; SRB): 9.69E−07 Molar
LC50 (concentration causing 50% net cell kill) (DU-145; DU-145): 1590 nM
TGI A-549 (A-549; A-549): 1.88E−06 Molar
GI50 (A-549; A-549): 1880 nM
CC50 (A-549; A-549): 1880 nM
GI50 (PANC-1; PANC-1): 1880 nM
TGI PANC-1 (PANC-1; PANC-1): 1.88E−06 Molar
CC50 (PANC-1; PANC-1): 1880 nM
GI50 (K-562; K-562): 1880 nM
TGI K-562 (K-562; K-562): 1.88E−06 Molar
CC50 (K-562; K-562): 1880 nM
GI50 (SK-BR-3; SRB): 348 nM
TGI SK-BR-3 (SK-BR-3; SRB): 8.19E−07 Molar
LC50 (SK-BR-3; SK-BR-3): 1450 nM
TGI HT-29 (HT-29; HT-29): 6.50E−07 Molar
GI50 (HT-29; HT-29): 318 nM
CC50 (HT-29; HT-29): 1180 nM
GI50 (SK-MEL-28; SRB): 963 nM
TGI MEL-28 (SK-MEL-28; SRB): 1.46E−06 Molar
CC50 (SK-MEL-28; MEL-28): 1880 nM
GI50 (IGROV-1; SRB): 781 nM
TGI IGROV (IGROV-1; SRB): 1.16E−06 Molar
LC50 (concentration causing 50% net cell killing) (IGROV-1; IGROV): 1730 nM
GI50 (HeLa; HELA): 681 nM
TGI HELA (HeLa; HELA): 1.15E−06 Molar
CC50 (HeLa; HELA): 1880 nM

C/C=C1\NC(=O)[C@H](Cc2ccccc2)NC(=O)[C@@H](C(C)C)NC(=O)[C@@H]([C@@H](C)CC)NC(=O)[C@H](NC(=O)[C@H](NC(=O)[C@H](CCCN)NC(=O)[C@H]2CCCN2C(=O)[C@H](NC(=O)[C@@H](NC(=O)[C@H](CCC(N)=O)NC(=O)[C@H](NC(=O)CCCC(C)C)C(C)C)C(C)C)C(C)C)[C@@H](C)CC)[C@@H](C)OC(=O)[C@H](C(C)C)NC1=O [Compound 119, [Gln^12]-KF] ({Hexanoyl(5-Me)}-[dV]QV[dV][dP][Orn][d(aIle)][d(aThr)][d(aIle)][dV]F[Dhb]V; ester 8-C)
GI50 (IGROV-ET; IGROV-ET): 764 nM
TGI IGROV-ET (IGROV-ET; IGROV-ET): 1.37E−06 Molar
CC50 (IGROV-ET; IGROV-ET): 1990 nM
GI50 (LoVo-Dox; LOVO-DOX): 591 nM
TGI LOVO-DOX (LoVo-Dox; LOVO-DOX): 1.16E−06 Molar
CC50 (LoVo-Dox; LOVO-DOX): 1990 nM
GI50 (DU-145; DU-145): 1990 nM
LC50 (concentration causing 50% net cell kill) (DU-145; DU-145): 1990 nM
TGI DU-145 (DU-145; DU-145): 1.99E−06 Molar
TGI A-549 (A-549; A-549): 1.99E−06 Molar
GI50 (A-549; A-549): 1990 nM
CC50 (A-549; A-549): 1990 nM
GI50 (PANC-1; PANC-1): 1990 nM
TGI PANC-1 (PANC-1; PANC-1): 1.99E−06 Molar
CC50 (PANC-1; PANC-1): 1990 nM
GI50 (K-562; K-562): 1990 nM
TGI K-562 (K-562; K-562): 1.99E−06 Molar
CC50 (K-562; K-562): 1990 nM
GI50 (SK-BR-3; SK-BR-3): 258 nM
LC50 (SK-BR-3; SK-BR-3): 1560 nM
TGI SK-BR-3 (SK-BR-3; SK-BR-3): 5.34E−07 Molar
TGI HT-29 (HT-29; HT-29): 1.35E−06 Molar
GI50 (HT-29; HT-29): 864 nM
CC50 (HT-29; HT-29): 1990 nM
GI50 (HeLa-APL; HELA-APL): 1990 nM
TGI HELA-APL (HeLa-APL; HELA-APL): 1.99E−06 Molar
CC50 (HeLa-APL; HELA-APL): 1990 nM
GI50 (SK-MEL-28; MEL-28): 1990 nM
TGI MEL-28 (SK-MEL-28; MEL-28): 1.99E−06 Molar
CC50 (SK-MEL-28; MEL-28): 1990 nM
GI50 (IGROV-1; IGROV): 651 nM
LC50 (concentration causing 50% net cell killing) (IGROV-1; IGROV): 1740 nM
TGI IGROV (IGROV-1; IGROV): 1.07E−06 Molar
GI50 (HeLa; HELA): 379 nM
TGI HELA (HeLa; HELA): 6.64E−07 Molar
CC50 (HeLa; HELA): 1990 nM
